Assay results: patent EP0196574A2, “4,4'-Diaminodiphenyl compounds, process for their preparation and their use” (HOECHST AKTIENGESELLSCHAFT, priority 1985, dated 1986)

Test system: Salmonella typhimurium (Stämme TA 98, TA 100, TA 1535, TA 1537, TA 1538)
Assay: Ames mutagenicity test
Format: cell-based
Details: strains TA 98, TA 100, TA 1535, TA 1537, TA 1538, ohne und in Gegenwart von S-9-Mix; for Ames-Test: table of further examples
Excerpt: Die folgenden Beispiele sollen die Erfindung näher beschreiben. Der Mutagenitätstest wurde nach Ames mit Salmonella typhimurium (Stämme TA 98, TA 100, TA 1535, TA 1537, TA 1538) ohne und in Gegenwart von S-9-Mix durchgeführt (B.N. Ames et al., Mut. Res. Vol. 31, S. 347 - 364 (1975)).

`CC(C)Oc1cc(-c2ccc(N)c(OC(C)C)c2)ccc1N` [Beispiel 9] was tested, and the Ames-Test was “negativ”.
With `CC(C)Cc1cc(-c2ccc(N)c(CC(C)C)c2)ccc1N` [Beispiel 6] the Ames-Test was “negativ”.
For `CCC(C)c1cc(-c2ccc(N)c(C(C)CC)c2)ccc1N` (stereo not shown) [Beispiel 7], the Ames-Test was “negativ”.
In the case of `CCCOc1cc(-c2ccc(N)c(OCCC)c2)ccc1N` [Beispiel 8], the Ames-Test is reported as “negativ”.
In the case of `CCCc1cc(-c2ccc(N)c(CCC)c2)ccc1N` [Beispiel 4], the Ames-Test is reported as “negativ”.
With `CCCCc1cc(-c2ccc(N)c(CCCC)c2)ccc1N` [Beispiel 5] the Ames-Test was “negativ”.
In the case of `CCC(C)Oc1cc(-c2ccc(N)c(OC(C)CC)c2)ccc1N` (stereo not shown) [Beispiel 10], the Ames-Test is reported as “negativ”.
In the case of `COCCOc1cc(-c2ccc(N)c(OCCOC)c2)ccc1N` [Beispiel 3, 3,3'-Di-(2-methoxyethoxy)-benzidin], the “Mutagenitätstest nach Ames” value is reported as “negativ”.
In the case of `CC(C)c1cc(-c2ccc(N)c(C(C)C)c2)ccc1N` [Beispiel 1, 3,3-Diisopropyl-benzidin-dichlorhydrat], the “Mutagenitätstest nach Ames” value is reported as “negativ”.
With `CC(C)COc1cc(-c2ccc(N)c(OCC(C)C)c2)ccc1N` [Beispiel 2, 3,3'-Di-isobutoxybenzidin] the “Mutagenitätstest nach Ames” value was “negativ”.
